Tests used:
HT-29 cells = assay: [3H]Thymidine incorporation cell proliferation assay in HT-29 cells; type: cell-based, human; conditions: 30 μM, three days
Procedure: The stilbenes illustrated in FIG. 4 were also used to investigate their ability to inhibit cell proliferation in HT-29 cell line. In this experiment, HT-29 cells (20,000 cells/well in 24-well plate) were treated with the respective stilbenes (each used either at 30 μM or 3 μM) in 10% FBS/DMEM for three days.
(§1) Human colon carcinoma cell lines HT-29 was obtained from the American Type Culture Collection (Manassas, Va.). The cells were maintained in Dulbecco's modification of Eagle's medium (DMEM) supplemented with 10% FBS and 1% penicillin/streptomycin at 37° C. and 5% CO2. The cytokine mixture, consisting of 10 ng/ml of TNF-α, IFN-γ and LPS, was used to induce iNOS and COX-2, unless otherwise mentioned. The cells were treated with the test compound either alone or in combination with cytokines for different time intervals and harvested for protein or RNA.
HT-29 cells were plated at a density of 20,000 cells/well in a 24 well plate and treated with varying concentrations of pterostilbene for a period of 1, 2 or 3 days at 37° C. Before harvest, the cells were incubated with 1 μCi [^3H]thymidine for 4 h at 37° C. and were washed with phosphate buffered saline. The cells were precipitated with cold 10% trichloroacetic acid for 10 min and solubilized with 0.5 ml solubilization buffer (0.2 M NaOH, 40 μg/ml salmon sperm DNA) for 2 h at room temperature. The lysate was transferred to 5 ml Ecolume and the [3H]thymidine incorporated into the DNA of HT-29 cells was determined using a scintillation spectrometer (Beckman Coulter, Fullerton, Calif.).

AOM-induced colonic ACF = conditions: F344 rats; L-N6-(1-iminoethyl)lysine tetrazoleamide at 100 ppm; cited from earlier work
iNOS = assay: Cytokine-induced iNOS protein expression in HT-29 cells (Western blot); type: cell-based, human; conditions: stilbene analogs each at 10 μM, 15 hours, HT-29, Western blot
Procedure: HT-29 human colon adenocarcinoma cells were grown in 10% FBC/DMEM. Cells (about 600,000 cells/well) were plated in 6-well plate and treated with stilbene analogs shown in FIG. 4 (each at 10 μM) for 15 hours together with cytokine mixture comprising TNF-a, IFN0g, and LPS (each at 10 ng/ml). Cell lysates were prepared and subjected to Western Blot analysis.
as §1
The cell culture conditions and the reagents used in this example were described in Example 32. Whole cell extracts were collected after the various treatments and analyzed by western blotting. The protein samples were separated on 4-15% SDS-PAGE gels (Biorad, Hercules, Calif.) followed by transfer to a polyvinylidene fluoride membrane. The membranes were blocked with 5% milk in Tris buffer for 1 h and then incubated with the appropriate primary antibody solutions overnight at 4° C. The membranes were washed with Tris buffer, and incubated with horseradish peroxidase conjugated secondary antibody solutions for 1 h at room temperature.
The protein bands were visualized using a chemiluminescence based kit from Amersham Biosciences (Buckinghamshire, UK). The primary antibodies against iNOS, COX-2, IκBα, cyclin D1, c-myc (Santa Cruz Bio-technology, Santa Cruz, Calif.), phospho-STAT3, phospho-Erk1/2, phospho-JNK1/2, phospho-p38, phospho-Akt, phospho-ATF2, phospho-Elk1, PARP (Cell Signaling Technology Inc., Beverly, Mass.) and actin (Sigma, St. Louis, Mo.) and secondary antibodies (Santa Cruz Biotechnology, Santa Cruz, Calif.) were used for probing the abundance of the target protein in the samples.

[1] = test system: colorectal aberrant crypt foci (ACF); conditions: rats; cited from earlier work
[2] = test system: AOM-induced rat colon carcinogenesis; conditions: 100 ppm; cited from earlier work

Compound | proliferation of HT-29 cells (HT-29 cells) | AOM-induced colonic ACF (AOM-induced colonic ACF) | also measured
COc1ccc(/C=C/c2cc(OC)cc(OC)c2)cc1 [ARS-8, (E)-1,3-dimethoxy-5-(4-methoxystyryl)benzene] | inhibited proliferation |  | 
L-N^6-(1-iminoethyl)lysine tetrazoleamide |  | significantly suppress | 
COc1ccc(/C=C\c2cc(OC)cc(OC)c2)cc1 [ARS-9, (Z)-1,3-dimethoxy-5-(4-methoxystyryl)benzene] | inhibited proliferation |  | induction of iNOS protein expression by cytokine mixture (iNOS): inhibited
N=C(N)SCCc1ccc(CCSC(=N)N)cc1 [PBIT, S,S′-1,4-phenylene-bis(1,2-ethanediyl)bis-isothiourea] |  | inhibitory effects | 
Oc1ccc(C=Cc2cc(O)cc(O)c2)cc1 [Resveratrol] |  |  | growth of colorectal aberrant crypt foci (ACF) [1]: reduce the growth
C[C@H]1CC(=N)N[C@@H]2[C@H](Cl)[C@@H]21.Cl [ONO-1714, [1S,5S,6R,7R]-7-chloro-3-imino-5-methyl-2 azabicyclo[4.1.0]heptane hydrochloride] |  |  | AOM-induced rat colon carcinogenesis [2]: inhibitory effect

Reference: patent US8426369B2, “Prevention and treatment of colon cancer” (Rutgers, The State University of New Jersey, priority 2006, dated 2013)
